Data on three compounds can be found in patent publication US11672842B2, “Gonadotropin-releasing hormones for use as adjuvant immunotherapeutics” (ISR IMMUNE SYSTEM REGULATION HOLDING AB (PUBL), priority 2017, dated 2023).

[ ]: non-standard residue; d: D form. pGlu = O=C1CC[C@@H](C(=O)O)N1

Data set [1] is described as follows: Open-label phase IIa clinical study: safety and tolerability. Type of data set: in vivo, human. The source says:
The study outline is depicted in FIG. 3.

Data set [2] relates to CD4+ and CD8+ T cells (PBMCs from a healthy donor). The experiment in a line: MHC class I expression after stimulation of T cells with GnRH II (FIG. 1). In kind it is cell-based, human. The following applies: GnRH II and IL-2 for 72 hours, flow cytometry. The protocol:
FIG. 1: Expression of MHC class I after stimulation of T cells with increasing concentrations of GnRH II. PBMCs from a healthy donor was stimulated with GnRH II and IL-2 for 72 hours. Data points represent mean fluorescent intensity of MCH class I expression on CD4^+ T cells (blue triangles) or CD8^+ T cells (black squares) measured with flow cytometry.

Another data set concerns CD4+ T-lymphocytes. Conditions: BB rats exhibiting an AIDS-like lymphocyte profile; cited from earlier work.

With `CCNC(=O)[C@@H]1CCCN1C(=O)[C@H](CCCNC(=N)N)NC(=O)[C@H](CC(C)C)NC(=O)[C@@H](COC(C)(C)C)NC(=O)[C@H](Cc1ccc(O)cc1)NC(=O)[C@H](CO)NC(=O)[C@H](Cc1c[nH]c2ccccc12)NC(=O)[C@H](Cc1cnc[nH]1)NC(=O)[C@@H]1CCC(=O)N1` [buserelin acetate], in data set [1] (Safety (n = 26)), the “Any AE affecting impotence, % of patients” value is reported as “(23.1%)”; the “Any AE affecting libido, % of patients” value was “(30.8%)”; the “Any AE leading to discontinuation, % of patients” value is “(3.8%)”; the “Any AE, % of patients” value was “(100.0%)”. Besides, in data set [1] (Safety (n = 26)), the “Any SAE, % of patients” value is recorded as “(0.0%)”; the “Any treatment-related AE, % of patients” value is “(65.4%)”; the “Any treatment-related SAE, % of patients” value is recorded as “(0.0%)”; the “Death, % of patients” value came to 0.0%. Also, in data set [1] (in words), the “grading of adverse events” value is given as “All adverse events except one was graded as mild”; the “overall safety and tolerability of the treatment” value is “safe and well-tolerated”; the “serious adverse events (SAEs) during the study” value is “no serious adverse events”.

Regarding “pyroGlu-His-Trp-Ser-His-Gly-Trp-Tyr-Pro-Gly-NH2 ([pGlu]HWSHGWYPG-NH2; SMILES NC(=O)CNC(=O)[C@@H]1CCCN1C(=O)[C@H](Cc1ccc(O)cc1)NC(=O)[C@H](Cc1c[nH]c2ccccc12)NC(=O)CNC(=O)[C@H](Cc1c[nH]cn1)NC(=O)[C@H](CO)NC(=O)[C@H](Cc1c[nH]c2ccccc12)NC(=O)[C@H](Cc1c[nH]cn1)NC(=O)[C@@H]1CCC(=O)N1) [GnRH II, second, non-hypothalamic form of GnRH]”, the “MHC class I expression on T cells” value in data set [2] was “stimulates MHC class I expression”.

Take “pyroGlu-His-Trp-Ser-Tyr-Gly-Leu-Arg-Pro-Gly-NH2 (EHWSYGLRPG; N-terminal pyroglutamate, C-terminal amide; printed: Glu-His-Trp-Ser-Tyr-Gly-Leu-Arg-Pro-Gly-) [GnRH I, decapeptide hormone]”: the “CD4+ T-lymphocyte numbers” value with CD4+ T-lymphocytes is “increased”.
